The values that follow are results of earlier work, collected in patent US9144554B2, “Topical compositions for use in the prevention and/or treatment of dermatitis” (priority 2011, dated 2015).

The conditions of the data set: medicaments used to treat dermatitis.

For the compound `CN(Cc1cnc2nc(N)nc(N)c2n1)c1ccc(C(=O)N[C@@H](CCC(=O)O)C(=O)O)cc1` [methotrexate], the Toxicity result is “toxic”.

Turning to ivermectin, the Toxicity entry was “toxic”.
